Test results reported in patent EP4778922A1, “BICYCLIC COMPOUND, AND PREPARATION METHOD THEREFOR AND PHARMACEUTICAL USE THEREOF” (Shanghai Jeyou Pharmaceutical Co., Ltd., priority 2023, dated 2025).
Where two headings read alike, the source gives them in different places.

How the values were obtained:
[1] = tested on: 22RV1 cells; experiment: Cell proliferation inhibition assay in 22RV1 cells (CellTiter-Glo, 7 days); type: cell-based, human
How it was run: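 22RV1 cells received compound alone; LNCaP cells were stimulated with 0.2 nM DHT added 1 h after compound. Seeding was 3000 cells/well.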

[2] = tested on: LNCaP cells; experiment: Cell proliferation inhibition assay in LNCaP cells (0.2 nM DHT, CellTiter-Glo, 7 days); type: cell-based, human
Description: • 1. The human prostate cancer cell lines 22RV1 and LNCaP were purchased from ATCC. […] The cell concentration was adjusted to an appropriate concentration (determined based on the results of cell density optimization experiments), and the cells were seeded into a 96-well plate. A 100 µL cell suspension was added, resulting in 3000 cells per well. […] On the second day, for 22Rv1 cells, test compounds at different concentrations were added, and the cells were incubated at 37°C in a 5% CO2 incubator for 7 days; for LNCaP cells, test compounds at different concentrations were added first, and after 1 hour of treatment, 0.2 nM DHT was added. The cells were then incubated at 37°C in a 5% CO2 incubator for 7 days. • 4. After the incubation period, a volume of CellTiter-Glo detection reagent equal to the volume of the culture medium was added to each well. The plate was shaken and mixed thoroughly for 5 minutes, then incubated at room temperature for 10 minutes. Readings were taken using a PerkinElmer EnVision microplate reader. • 5.
The IC50 curve was fitted and the IC50 value was calculated using the software GraphPad Prism 8 with the calculation formula XY-analysis/Nonlinear regression (curve fit)/Dose response-Inhibition/log (inhibitor) vs. response-Variable slope (four parameters).

[3] = Mouse pharmacokinetic test; type: in vivo, ICR mice; settings: PO-30mpk, 30 mg/kg
How it was run: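 Male naive ICR mice (25–30 g, n=3 per route) received a single intravenous or oral dose, with feeding resumed 4 h post-dose. Blood was centrifuged at 4°C, and plasma was stored at -80°C until analysis.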

[4] = molecular target: T1, CYP2C19 (Homo sapiens, UniProt P33261); experiment: CYP inhibition assay in human liver microsomes; type: in vitro ADME; settings: human liver microsomes, NADPH; read-out: CYPs 2C19 (IC50)
T1 construct: co-incubated with human liver microsomes; from tissue; host or cells: human liver microsomes
Description: (§1) Test Example 3: CYP Inhibition Assay
(§2) An in vitro assay system was used to evaluate the effects of the compounds on the activities of several human liver microsomal cytochrome P450 (CYP) isozymes (CYP1A2, CYP2C9, CYP2D6, CYP3A4 (testosterone/midazolam), CYP2C19, and CYP2C8). Specific probe substrates for CYP450 isozymes were co-incubated with human liver microsomes and the compound at various concentrations (0, 0.0300, 0.100, 0.300, 1.00, 3.00, 10.0 µM). The reaction was initiated by adding the coenzyme NADPH. After the reaction was completed, the samples were processed, and the metabolites generated from the probe substrates were detected by liquid chromatography-tandem mass spectrometry (LC-MS/MS). Based on the resulting dose-response curves, the IC50 values of the test compounds for the probe substrate reactions catalyzed by each CYP isozyme were calculated.

[5] = molecular target: T2, CYP2C8 (Homo sapiens, UniProt P10632); experiment: CYP inhibition assay in human liver microsomes; type: in vitro ADME; settings: human liver microsomes, NADPH; read-out: CYPs 2C8 (IC50)
T2 construct: co-incubated with human liver microsomes; from tissue; host or cells: human liver microsomes
T2 sequence (P10632 1-490): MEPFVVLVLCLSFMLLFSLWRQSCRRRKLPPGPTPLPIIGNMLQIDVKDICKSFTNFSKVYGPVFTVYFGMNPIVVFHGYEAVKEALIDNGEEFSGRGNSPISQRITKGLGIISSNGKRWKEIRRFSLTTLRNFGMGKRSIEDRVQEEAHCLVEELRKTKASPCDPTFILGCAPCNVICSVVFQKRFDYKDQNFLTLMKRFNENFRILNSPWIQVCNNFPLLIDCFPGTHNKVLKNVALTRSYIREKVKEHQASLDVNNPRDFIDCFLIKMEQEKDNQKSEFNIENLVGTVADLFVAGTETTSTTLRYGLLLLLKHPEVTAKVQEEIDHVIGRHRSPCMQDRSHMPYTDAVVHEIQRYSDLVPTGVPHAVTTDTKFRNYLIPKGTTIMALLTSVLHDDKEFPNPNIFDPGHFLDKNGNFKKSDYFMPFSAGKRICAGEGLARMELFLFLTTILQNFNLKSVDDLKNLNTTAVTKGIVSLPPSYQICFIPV
Description: as §1, §2

[6] = molecular target: T3, CYP3A4 (testosterone/midazolam) (Homo sapiens, UniProt P08684); experiment: CYP inhibition assay in human liver microsomes; type: in vitro ADME
T3 construct: co-incubated with human liver microsomes; from tissue; host or cells: human liver microsomes
Description: as §1, §2

[7] = molecular target: T4, CYP2C9 (Homo sapiens, UniProt P11712); experiment: CYP inhibition assay in human liver microsomes; type: in vitro ADME; settings: human liver microsomes, NADPH; read-out: CYPs 2C9 (IC50)
T4 construct: co-incubated with human liver microsomes; from tissue; host or cells: human liver microsomes
Description: as §1, §2

[8] = probe substrate midazolam, read-out: CYPs 3A4 (Midazolam) (IC50)
[9] = probe substrate testosterone, read-out: CYPs 3A4 (Testosterone) (IC50)

T3 sequence (P08684 whole entry): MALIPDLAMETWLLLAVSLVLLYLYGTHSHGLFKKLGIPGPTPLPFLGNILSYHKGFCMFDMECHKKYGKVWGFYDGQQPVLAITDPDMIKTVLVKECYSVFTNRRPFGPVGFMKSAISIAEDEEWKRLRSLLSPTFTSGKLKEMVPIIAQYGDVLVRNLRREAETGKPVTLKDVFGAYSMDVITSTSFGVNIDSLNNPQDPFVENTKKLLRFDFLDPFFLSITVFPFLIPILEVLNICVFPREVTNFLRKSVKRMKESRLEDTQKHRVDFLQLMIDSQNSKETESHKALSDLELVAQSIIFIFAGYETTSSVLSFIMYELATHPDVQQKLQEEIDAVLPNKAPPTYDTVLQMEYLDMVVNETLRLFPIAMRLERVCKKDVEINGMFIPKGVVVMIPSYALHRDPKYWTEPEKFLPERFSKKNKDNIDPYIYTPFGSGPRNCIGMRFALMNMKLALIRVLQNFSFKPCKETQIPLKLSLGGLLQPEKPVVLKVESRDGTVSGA
T1 sequence (P33261 whole entry): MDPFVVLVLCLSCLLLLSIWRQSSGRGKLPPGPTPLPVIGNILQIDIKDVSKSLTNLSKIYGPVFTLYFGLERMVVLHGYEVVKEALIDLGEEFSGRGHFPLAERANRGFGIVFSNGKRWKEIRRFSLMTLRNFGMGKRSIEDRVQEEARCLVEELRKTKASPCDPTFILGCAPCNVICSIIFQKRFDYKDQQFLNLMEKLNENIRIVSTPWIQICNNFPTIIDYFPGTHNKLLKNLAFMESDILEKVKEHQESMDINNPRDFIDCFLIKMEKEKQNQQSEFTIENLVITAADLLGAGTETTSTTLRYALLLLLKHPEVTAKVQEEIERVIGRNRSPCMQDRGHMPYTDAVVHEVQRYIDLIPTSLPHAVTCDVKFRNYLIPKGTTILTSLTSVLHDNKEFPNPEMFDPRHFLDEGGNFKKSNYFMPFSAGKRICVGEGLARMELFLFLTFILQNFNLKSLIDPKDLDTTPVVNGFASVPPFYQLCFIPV
T4 sequence (P11712 whole entry): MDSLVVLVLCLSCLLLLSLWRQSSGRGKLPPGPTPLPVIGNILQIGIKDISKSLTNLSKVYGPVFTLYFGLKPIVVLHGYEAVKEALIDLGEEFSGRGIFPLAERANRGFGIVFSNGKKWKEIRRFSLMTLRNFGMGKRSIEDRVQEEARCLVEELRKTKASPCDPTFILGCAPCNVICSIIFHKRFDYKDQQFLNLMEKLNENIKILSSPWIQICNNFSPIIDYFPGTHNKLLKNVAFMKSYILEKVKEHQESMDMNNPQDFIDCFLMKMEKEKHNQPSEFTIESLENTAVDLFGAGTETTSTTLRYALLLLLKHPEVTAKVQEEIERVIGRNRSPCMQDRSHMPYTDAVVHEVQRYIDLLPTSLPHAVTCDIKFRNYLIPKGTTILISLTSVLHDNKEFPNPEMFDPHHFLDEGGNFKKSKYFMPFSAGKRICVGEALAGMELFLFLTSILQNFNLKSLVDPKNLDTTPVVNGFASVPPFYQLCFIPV

Row | Compound | IC50 ([1]; Homo sapiens, 22Rv1, 168 h) | Cmax ([3]; plasma, po) | half-life ([3]; plasma, po) | Tmax ([3]; plasma, po, read-out: Tmax) | IC50 [4] | IC50 [5] | IC50 [6, 8] | IC50 [6, 9] | IC50 ([2]; Homo sapiens, LNCaP, 168 h) | IC50 ([1]; Homo sapiens, 168 h) | IC50 ([2]; Homo sapiens, 168 h) | also measured
1 | CC(C)(c1ccc(-c2cnc(OCc3ccnc(N4CC5(CCS5(=N)=O)C4)n3)cn2)cc1)c1cc(Cl)c(OCCCl)c(C#N)c1 (single isomer, unassigned) [Compound 375A] | 89 nM | 109000 ng/mL | 6.82 h | 3.3 h | > 10000 nM | > 10000 nM | > 10000 nM | > 10000 nM | – | – | – | IC50 [2]: 58 nM; AUCi [3]: 1307.079 µg·h/mL
2 | CC(C)(c1ccc(-c2ccc(OCc3ccnc(N=S4(=O)CCCC4)n3)cc2)cc1)c1cc(Cl)c(OCCCl)c(C#N)c1 [Compound 7] | 460 nM | 12300 ng/mL | 5 h | 3.3 h | – | > 10000 nM | > 10000 nM | > 10000 nM | – | – | – | AUC(0-inf) ([3]; plasma, po): 161 µg·h/mL; IC50 [7]: 7300 nM
3 | CC(C)(c1ccc(-c2ccc(OCC3CC(CN4CC(S(C)(=O)=O)C4)C3)cc2)cc1)c1cc(Cl)c(OCCCl)c(C#N)c1 (stereo not shown) [Compound 302] | 1410 nM | – | – | – | > 10000 nM | > 10000 nM | > 10000 nM | > 10000 nM | – | – | – | IC50 [7]: > 10000 nM
4 | CC(C)(c1ccc(-c2cnc(OCc3ccnc(N=S4(=O)CCOCC4)n3)cn2)cc1)c1cc(Cl)c(OCCCl)c(C#N)c1 [Compound 206] | 410 nM | 32100 ng/mL | 1.7 h | 2 h | – | – | – | – | 980 nM | – | – | AUC(0-inf) ([3]; plasma, po): 236 µg·h/mL
5 | CC(C)(c1ccc(-c2ccc(OCc3ccnc(N=S4(=O)CCOCC4)n3)cn2)cc1)c1cc(Cl)c(OCCCl)c(C#N)c1 [Compound 62] | 260 nM | 19900 ng/mL | 2 h | 2 h | – | – | – | – | 830 nM | – | – | AUC(0-inf) ([3]; plasma, po): 188 µg·h/mL
6 | CC(C)(c1ccc(-c2ccc(/C=C/c3cnc(P(C)(C)=O)nc3)cc2)cc1)c1cc(Cl)c(OCCCl)c(C#N)c1 [Compound 234] | 350 nM | 13400 ng/mL | 11 h | 7 h | – | – | – | – | 580 nM | – | – | AUC(0-inf) ([3]; plasma, po): 307 µg·h/mL
7 | CC(C)(c1ccc(-c2ccc(OC3CCN(c4ccnc(N=S5(=O)CCCC5)n4)CC3)cc2)cc1)c1cc(Cl)c(OCCCl)c(C#N)c1 [Compound 65] | 1180 nM | – | – | – | > 10000 nM | 4300 nM | > 10000 nM | > 10000 nM | – | – | – | IC50 [7]: > 10000 nM
8 | CC(C)(c1ccc(-c2cnc(OCc3ccnc(N4CC(S(=N)(=O)C5CC5)C4)n3)cn2)cc1)c1cc(Cl)c(OCCCl)c(C#N)c1 (single isomer, unassigned) [Compound 350A] | – | – | – | – | > 10000 nM | > 10000 nM | > 10000 nM | > 10000 nM | 55 nM | – | – | –
9 | Cc1cc(OCc2ccnc(P(C)(C)=O)n2)ccc1-c1ccc(C(C)(C)c2cc(Cl)c(OCCCl)c(C#N)c2)cc1 [Compound 119] | 740 nM | 17400 ng/mL | 11.8 h | 4.7 h | – | – | – | – | 940 nM | – | – | AUC(0-inf) ([3]; plasma, po): 333 µg·h/mL
10 | CC(C)(c1ccc(-c2cnc(OCc3ccnc(N4CC5(CCS5(=N)=O)C4)n3)cn2)cc1)c1cc(Cl)c(OCCCl)c(C#N)c1 (single isomer, unassigned) [Compound 375B] | – | – | – | – | > 10000 nM | > 10000 nM | > 10000 nM | > 10000 nM | 100 nM | – | – | IC50 [1]: 120 nM; AUCi [3]: 2620.877 µg·h/mL; Cmax (PO) [3]: 153425 ng/mL; T1/2 [3]: 8.67 h; Tmax [3]: 4.0 h
11 | CC(C)(c1ccc(-c2cnc(OCc3ccnc(N4CC(S(N)(=O)=O)C4)n3)cn2)cc1)c1cc(Cl)c(OCCCl)c(C#N)c1 [Compound 378] | 170 nM | – | – | – | > 10000 nM | > 10000 nM | > 10000 nM | > 10000 nM | 61 nM | – | – | –
12 | CC(C)(c1ccc(-c2ccc(OCc3ccnc(N=S4(=O)CCN(CCO)CC4)n3)cc2)cc1)c1cc(Cl)c(OCCCl)c(C#N)c1 [Compound 164] | – | – | – | – | – | – | – | – | – | 45 nM | 480 nM | –
13 | CN=S(C)(=O)C1CN(c2nccc(COc3ccc(-c4ccc(C(C)(C)c5cc(Cl)c(OCCCl)c(C#N)c5)cc4)nc3)n2)C1 (stereo not shown) [Compound 414] | – | – | – | – | – | – | – | – | – | 940 nM | 360 nM | –
14 | CC(C)(c1ccc(-c2ccc(OCc3ccc(-c4cnc(P(C)(C)=O)nc4)nc3)nc2)cc1)c1cc(Cl)c(OCCCl)c(C#N)c1 [Compound 398] | – | – | – | – | – | – | – | – | – | 510 nM | 120 nM | –
15 | CC(C)(c1ccc(-c2ccc(OCc3cnc(-c4cnc(P(C)(C)=O)nc4)cn3)nc2)cc1)c1cc(Cl)c(OCCCl)c(C#N)c1 [Compound 410] | – | – | – | – | – | – | – | – | – | 880 nM | 27000 nM | –
16 | CC(C)(c1ccc(-c2ccc(OCc3ccc(-c4cnc(N5CC6(C5)CS(=N)(=O)C6)nc4)cc3)cc2)cc1)c1cc(Cl)c(OCCCl)c(C#N)c1 [Compound 317] | – | – | – | – | – | – | – | – | – | 1040 nM | 270 nM | –
17 | CC(C)(c1ccc(-c2cnc(OCc3ccnc(N4CC(S(C)(=O)=O)C4)n3)nc2)cc1)c1cc(Cl)c(OCCCl)c(C#N)c1 [Compound 342] | – | – | – | – | – | – | – | – | – | 860 nM | 500 nM | –
18 | CC(C)(c1cc(Cl)c(OCCCl)c(C#N)c1)c1ccc(-c2ccc(OCc3ccnc(N4CC(S(C)(=N)=O)C4)n3)cc2)cn1 (stereo not shown) [Compound 477] | – | – | – | – | – | – | – | – | – | 690 nM | 240 nM | –
19 | CC(C)(O)CN1CCS(=O)(=Nc2nccc(COc3ccc(-c4ccc(C(C)(C)c5cc(Cl)c(OCCCl)c(C#N)c5)cc4)cc3)n2)CC1 [Compound 254] | – | – | – | – | – | – | – | – | – | 160 nM | 440 nM | –
20 | CC(C)(c1ccc(-c2cnc(OCC34CC(c5cnc(P(C)(C)=O)nc5)(C3)C4)cn2)cc1)c1cc(Cl)c(OCCCl)c(C#N)c1 [Compound 322] | – | – | – | – | – | – | – | – | – | 1050 nM | 120 nM | –
